Measurements published in the NIST ThermoML archive (doi:10.1021/je0302001).
Numbers after ± are expanded uncertainties.

Experiment: mn = molality of the nth substance listed, in mol/kg
Conditions: for speed of sound / mass density / viscosity: 101.3 kPa, Liquid; for viscosity: Capillary tube (Ostwald / Ubbelohde) method; for surface tension liquid-gas: Ring tensiometer

O=[N+]([O-])[O-].O=[N+]([O-])[O-].[Zn+2] [nitric acid, zinc salt] + O
Conditions	mass density [kg/m3]	speed of sound [m/s]	surface tension liquid-gas [mN/m]	viscosity [mPa·s]
303.15 K, m1 = 2.145	–	1622.9 ± 4.3	–	–
303.15 K, m1 = 2.29	–	1632.6 ± 4.3	–	–
303.15 K, m1 = 2.292	–	1630.1 ± 4.3	–	–
303.15 K, m1 = 2.344	–	1634.7 ± 4.3	–	–
303.15 K, m1 = 2.91	–	1664 ± 4.4	–	–
303.15 K, m1 = 3.472	–	1691.2 ± 4.5	–	–
303.15 K, m1 = 4.075	–	1714.1 ± 4.5	–	–
303.15 K, m1 = 4.817	–	1739.4 ± 4.6	–	–
303.15 K, m1 = 5.224	–	1748.1 ± 4.6	–	–
303.15 K, m1 = 5.797	–	1760.4 ± 4.6	–	–
303.15 K, m1 = 6.34	–	1768.2 ± 4.7	–	–
303.15 K, m1 = 6.89	–	1772.4 ± 4.7	–	–
303.15 K, m1 = 7.349	–	1774 ± 4.7	–	–
303.2 K, m1 = 6.89	1705.2 ± 1.6	–	–	–
303.25 K, m1 = 5.8	1629.7 ± 1.5	–	–	–
303.65 K, m1 = 0.6111	1084.7 ± 0.8	–	–	–
303.65 K, m1 = 1.906	1255.3 ± 1	–	–	–
303.7 K, m1 = 0.3388	1045.4 ± 0.7	–	–	–
303.75 K, m1 = 1.113	1154 ± 0.8	–	–	–
303.75 K, m1 = 1.258	1173.4 ± 0.9	–	–	–
303.75 K, m1 = 4.075	1486.4 ± 1.3	–	–	–
303.85 K, m1 = 4.817	1551.9 ± 1.3	–	–	–
303.95 K, m1 = 2.29	1300.6 ± 1	–	–	–
304 K, m1 = 3.472	1428.2 ± 1.2	–	–	–
304.15 K, m1 = 5.224	1584.8 ± 1.4	–	–	–
304.2 K, m1 = 7.349	1732.6 ± 1.6	–	–	–
304.3 K, m1 = 1.551	1210.3 ± 0.9	–	–	–
304.3 K, m1 = 2.344	1306.7 ± 1	–	–	–
304.35 K, m1 = 0.6405	1088.5 ± 0.8	–	–	–
304.45 K, m1 = 2.292	1300.6 ± 1	–	–	–
304.85 K, m1 = 0.1329	1014.5 ± 0.7	–	–	–
304.85 K, m1 = 2.91	1369.1 ± 1.1	–	–	–
304.85 K, m1 = 6.89	1703.4 ± 1.6	–	–	–
305.1 K, m1 = 5.8	1627.9 ± 1.5	–	–	–
305.4 K, m1 = 2.145	1282.8 ± 1	–	–	–
305.45 K, m1 = 6.34	1666.3 ± 1.5	–	–	–
305.65 K, m1 = 0.0875	1007.5 ± 0.7	–	–	–
305.65 K, m1 = 4.075	1484.9 ± 1.3	–	–	–
305.7 K, m1 = 1.906	1254.1 ± 1	–	–	–
306.1 K, m1 = 1.258	1172 ± 0.9	–	–	–
306.15 K, m1 = 2.29	1299.2 ± 1	–	–	–
306.25 K, m1 = 0.2466	1031 ± 0.7	–	–	–
306.25 K, m1 = 1.113	1152.7 ± 0.8	–	–	–
306.3 K, m1 = 2.344	1305.3 ± 1	–	–	–
306.35 K, m1 = 0.6111	1083.6 ± 0.8	–	–	–
306.35 K, m1 = 2.292	1299.4 ± 1	–	–	–
306.55 K, m1 = 1.551	1209.4 ± 0.9	–	–	–
306.6 K, m1 = 0.3388	1044.3 ± 0.7	–	–	–
306.75 K, m1 = 2.91	1367.8 ± 1.1	–	–	–
307.05 K, m1 = 0.6405	1087.4 ± 0.8	–	–	–
307.35 K, m1 = 2.145	1281.5 ± 1	–	–	–
307.5 K, m1 = 4.817	1548.6 ± 1.4	–	–	–
307.55 K, m1 = 4.075	1483.4 ± 1.3	–	–	–
307.55 K, m1 = 7.349	1729.2 ± 1.6	–	–	–
307.75 K, m1 = 3.472	1425.1 ± 1.2	–	–	–
307.75 K, m1 = 5.224	1581.5 ± 1.4	–	–	–
307.85 K, m1 = 0.1329	1013.4 ± 0.7	–	–	–
307.9 K, m1 = 1.906	1252.7 ± 1	–	–	–
308.15 K, m1 = 0.0875	–	1525.6 ± 4.1	–	–
308.15 K, m1 = 0.1329	–	1523.4 ± 4	–	0.76 ± 0.009
308.15 K, m1 = 0.2466	–	1527.9 ± 4.1	–	0.787 ± 0.009
308.15 K, m1 = 0.3388	–	1532.5 ± 4.1	–	0.809 ± 0.009
308.15 K, m1 = 0.6111	–	1543.7 ± 4.1	–	0.884 ± 0.01
308.15 K, m1 = 0.6405	–	1544.7 ± 4.1	–	0.892 ± 0.01
308.15 K, m1 = 1.113	–	1566.6 ± 4.2	–	1.044 ± 0.012
308.15 K, m1 = 1.258	–	1576.6 ± 4.2	–	1.107 ± 0.013
308.15 K, m1 = 1.551	–	1592.5 ± 4.2	–	1.216 ± 0.014
308.15 K, m1 = 1.906	–	1612.5 ± 4.3	–	1.405 ± 0.016
308.15 K, m1 = 2.145	–	1624.2 ± 4.3	–	1.548 ± 0.018
308.15 K, m1 = 2.29	–	1632.3 ± 4.3	–	1.622 ± 0.019
308.15 K, m1 = 2.292	–	1630.7 ± 4.3	–	–
308.15 K, m1 = 2.344	–	1635 ± 4.3	–	1.645 ± 0.019
308.15 K, m1 = 2.91	–	1662.2 ± 4.4	–	2.035 ± 0.024
308.15 K, m1 = 3.472	–	1687 ± 4.5	–	2.554 ± 0.031
308.15 K, m1 = 4.075	–	1708.9 ± 4.5	–	3.149 ± 0.038
308.15 K, m1 = 4.817	–	1733.1 ± 4.6	–	4.24 ± 0.052
308.15 K, m1 = 5.224	–	1740.5 ± 4.6	–	4.878 ± 0.06
308.15 K, m1 = 5.797	–	1751.6 ± 4.6	–	6.183 ± 0.077
308.15 K, m1 = 6.34	–	1757.7 ± 4.6	–	7.469 ± 0.093
308.15 K, m1 = 6.89	–	1762.2 ± 4.7	–	9.274 ± 0.12
308.15 K, m1 = 7.349	–	1762.6 ± 4.7	–	10.94 ± 0.14
308.25 K, m1 = 2.344	1303.9 ± 1	–	–	–
308.3 K, m1 = 1.258	1170.8 ± 0.9	–	–	–
308.35 K, m1 = 1.113	1151.6 ± 0.9	–	–	–
308.35 K, m1 = 6.89	1699.9 ± 1.6	–	–	–
308.6 K, m1 = 1.551	1208.2 ± 0.9	–	–	–
308.75 K, m1 = 0.0875	1006.4 ± 0.7	–	–	–
308.75 K, m1 = 5.8	1624.4 ± 1.5	–	–	–
308.85 K, m1 = 2.91	1366.3 ± 1.1	–	–	–
309.05 K, m1 = 0.6111	1082.4 ± 0.8	–	–	–
309.1 K, m1 = 6.34	1662.7 ± 1.5	–	–	–
309.15 K, m1 = 0.2466	1029.9 ± 0.7	–	–	–
309.35 K, m1 = 4.817	1546.9 ± 1.4	–	–	–
309.4 K, m1 = 0.3388	1043.2 ± 0.8	–	–	–
309.45 K, m1 = 0.6405	1086.3 ± 0.8	–	–	–
309.45 K, m1 = 2.145	1280.1 ± 1	–	–	–
309.55 K, m1 = 3.472	1423.6 ± 1.2	–	–	–
309.55 K, m1 = 5.224	1579.9 ± 1.4	–	–	–
310.1 K, m1 = 2.29	1296.5 ± 1	–	–	–
310.35 K, m1 = 2.344	1302.6 ± 1	–	–	–
310.45 K, m1 = 1.258	1169.6 ± 0.9	–	–	–
310.45 K, m1 = 2.292	1296.6 ± 1	–	–	–
310.45 K, m1 = 5.8	1622.9 ± 1.5	–	–	–
310.7 K, m1 = 1.113	1150.3 ± 0.9	–	–	–
310.7 K, m1 = 2.91	1364.9 ± 1.1	–	–	–
310.75 K, m1 = 0.1329	1012.3 ± 0.7	–	–	–
310.75 K, m1 = 6.34	1661.1 ± 1.5	–	–	–
310.8 K, m1 = 7.764	1749.7 ± 1.7	–	–	–
310.85 K, m1 = 1.551	1206.9 ± 0.9	–	–	–
310.95 K, m1 = 7.349	1725.6 ± 1.6	–	–	–
311.15 K, m1 = 4.817	1545.4 ± 1.4	–	–	–
311.25 K, m1 = 5.224	1578.2 ± 1.4	–	–	–
311.35 K, m1 = 0.6111	1081.4 ± 0.8	–	–	–
311.35 K, m1 = 3.472	1422.1 ± 1.2	–	–	–
311.35 K, m1 = 4.075	1480.4 ± 1.3	–	–	–
311.4 K, m1 = 2.145	1278.8 ± 1	–	–	–
311.5 K, m1 = 0.0875	1005.4 ± 0.7	–	–	–
311.7 K, m1 = 6.89	1696.5 ± 1.6	–	–	–
311.85 K, m1 = 0.2466	1028.8 ± 0.8	–	–	–
311.85 K, m1 = 0.3388	1042.2 ± 0.8	–	–	–
311.9 K, m1 = 0.6405	1085.1 ± 0.8	–	–	–
311.9 K, m1 = 1.906	1250.1 ± 1	–	–	–
312 K, m1 = 2.29	1295.1 ± 1.1	–	–	–
312.25 K, m1 = 5.8	1621 ± 1.5	–	–	–
312.35 K, m1 = 2.292	1295.2 ± 1.1	–	–	–
312.55 K, m1 = 6.34	1659.2 ± 1.6	–	–	–
312.7 K, m1 = 1.258	1168.4 ± 0.9	–	–	–
312.85 K, m1 = 1.113	1149.1 ± 0.9	–	–	–
312.95 K, m1 = 1.551	1205.6 ± 0.9	–	–	–
313.05 K, m1 = 5.224	1576.6 ± 1.4	–	–	–
313.15 K, m1 = 0.0875	–	1533.4 ± 4.1	–	–
313.15 K, m1 = 0.1329	–	1531.7 ± 4.1	–	0.691 ± 0.008
313.15 K, m1 = 0.2263	–	–	70.59 ± 0.9	–
313.15 K, m1 = 0.2466	–	1535.7 ± 4.1	–	0.716 ± 0.008
313.15 K, m1 = 0.334	–	–	70.83 ± 0.9	–
313.15 K, m1 = 0.3388	–	–	–	0.739 ± 0.009
313.15 K, m1 = 0.6111	–	–	–	0.805 ± 0.009
313.15 K, m1 = 0.6198	–	–	71.5 ± 0.91	–
313.15 K, m1 = 0.6405	–	–	–	0.813 ± 0.009
313.15 K, m1 = 0.8228	–	–	72.2 ± 0.92	–
313.15 K, m1 = 1.113	–	–	–	0.952 ± 0.011
313.15 K, m1 = 1.258	–	–	–	1.01 ± 0.012
313.15 K, m1 = 1.259	–	–	73.37 ± 0.94	–
313.15 K, m1 = 1.549	–	–	74.1 ± 0.96	–
313.15 K, m1 = 1.551	–	–	–	1.106 ± 0.013
313.15 K, m1 = 1.818	–	–	74.61 ± 0.97	–
313.15 K, m1 = 1.906	–	–	–	1.277 ± 0.015
313.15 K, m1 = 2.145	–	–	–	1.408 ± 0.017
313.15 K, m1 = 2.222	–	–	76.05 ± 0.99	–
313.15 K, m1 = 2.29	–	–	–	1.475 ± 0.017
313.15 K, m1 = 2.344	–	–	–	1.495 ± 0.018
313.15 K, m1 = 2.526	–	–	77.02 ± 1	–
313.15 K, m1 = 2.721	–	–	77.55 ± 1	–
313.15 K, m1 = 2.91	–	–	–	1.843 ± 0.022
313.15 K, m1 = 3.426	–	–	79.09 ± 1.1	–
313.15 K, m1 = 3.472	–	–	–	2.305 ± 0.028
313.15 K, m1 = 4.011	–	–	80.79 ± 1.1	–
313.15 K, m1 = 4.075	–	–	–	2.868 ± 0.035
313.15 K, m1 = 4.231	–	–	81.05 ± 1.1	–
313.15 K, m1 = 4.817	–	–	–	3.774 ± 0.046
313.15 K, m1 = 5.133	–	–	83.04 ± 1.1	–
313.15 K, m1 = 5.224	–	–	–	4.322 ± 0.053
313.15 K, m1 = 5.797	–	–	–	5.432 ± 0.067
313.15 K, m1 = 6.245	–	–	84.64 ± 1.2	–
313.15 K, m1 = 6.34	–	–	–	6.509 ± 0.081
313.15 K, m1 = 6.89	–	–	–	7.997 ± 0.1
313.15 K, m1 = 7.349	–	–	–	9.383 ± 0.12
